Patent publication US9902717B2, “Process of preparing potassium salt of Azilsartan medoxomil” (Unichem Laboratories Limited, priority 2015, dated 2018)

Assay: Stability study of polymorph U of Azilsartan Kamedoxomil at 5±3° C. for 6 months
Format: physicochemical
Settings: for 01) Description White to off-white coloured powder / 02) Identification By HPLC: retention time of the major peak should correspond to Azilsartan Kamedoxomil Standard preparation / 03) Loss on drying (at 60° C. under vacuum for 3 hrs) NMT 1.0% w/w / 04) Related substances Method 1: By HPLC (by Area %) i) Azilsartan NMT 1.0% / 04) Related substances Method 1: By HPLC (by Area %) ii) Azilsartan ester NMT 0.3% / 04) Related substances Method 1: By HPLC (by Area %) iii) Impurity at RRT about 1.04 NMT 0.3% / 04) Related substances Method 1: By HPLC (by Area %) iv) Any individual unspecified impurity NMT 0.2% / 04) Related substances Method 1: By HPLC (by Area %) v) Total impurities NMT 2.5% / 04) Related substances Method 2: By GCHS i) Content of 2, 3 butanedione by GCHS: NMT 0.5% / 05) Assay by HPLC (On dried basis) NLT 97.5% w/w and NMT 102.0% w/w: stability testing at 5±3° C.

CCOc1nc2cccc(C(=O)OCc3oc(=O)oc3C)c2n1Cc1ccc(-c2ccccc2-c2noc(=O)[nH]2)cc1.[K] [polymorph U, (5-methyl-2-oxo-1,3-dioxo-4-yl)methyl-2-ethoxy-1-1{[2′-(5-oxo-4,5-dihydro-1,2,4-oxadiazol-3-yl)biphenyl-4yl]methyl}-1H-benzimidazole-7-carboxylate monopotassium salt]
change in XRPD pattern (polymorphic change) (stability testing at 5±3° C. for 6 Months): no change | 01) Description White to off-white coloured powder (6 M): White | 02) Identification By HPLC: retention time of the major peak should correspond to Azilsartan Kamedoxomil Standard preparation (6 M): Complies | 03) Loss on drying (at 60° C. under vacuum for 3 hrs) NMT 1.0% w/w (6 M): 0.26% w/w | 04) Related substances Method 1: By HPLC (by Area %) i) Azilsartan NMT 1.0% (6 M): 0.18% | 04) Related substances Method 1: By HPLC (by Area %) ii) Azilsartan ester NMT 0.3% (6 M): 0.01% | 04) Related substances Method 1: By HPLC (by Area %) iii) Impurity at RRT about 1.04 NMT 0.3% (6 M): 0.08% | 04) Related substances Method 1: By HPLC (by Area %) iv) Any individual unspecified impurity NMT 0.2% (6 M): 0.03% | 04) Related substances Method 1: By HPLC (by Area %) v) Total impurities NMT 2.5% (6 M): 0.43% | 04) Related substances Method 2: By GCHS i) Content of 2, 3 butanedione by GCHS: NMT 0.5% (6 M): 0.13% | 05) Assay by HPLC (On dried basis) NLT 97.5% w/w and NMT 102.0% w/w (6 M): 100.3% w/w | 01) Description White to off-white coloured powder (Initial): White | 02) Identification By HPLC: retention time of the major peak should correspond to Azilsartan Kamedoxomil Standard preparation (Initial): Complies | 03) Loss on drying (at 60° C. under vacuum for 3 hrs) NMT 1.0% w/w (Initial): 0.44% w/w | 04) Related substances Method 1: By HPLC (by Area %) i) Azilsartan NMT 1.0% (Initial): 0.19% | 04) Related substances Method 1: By HPLC (by Area %) ii) Azilsartan ester NMT 0.3% (Initial): 0.01% | 04) Related substances Method 1: By HPLC (by Area %) iii) Impurity at RRT about 1.04 NMT 0.3% (Initial): 0.09% | 04) Related substances Method 1: By HPLC (by Area %) iv) Any individual unspecified impurity NMT 0.2% (Initial): 0.03% | 04) Related substances Method 1: By HPLC (by Area %) v) Total impurities NMT 2.5% (Initial): 0.56% | 04) Related substances Method 2: By GCHS i) Content of 2, 3 butanedione by GCHS: NMT 0.5% (Initial): 0.13% w/w | 05) Assay by HPLC (On dried basis) NLT 97.5% w/w and NMT 102.0% w/w (Initial): 101.7 w/w | Stability (studied at 5±3° C.): stable
